This assay deals with PI3Kβ (Homo sapiens (Human), UniProt P42338). The assay can be described thus: PI3K isoform TR-FRET enzymatic assay (PI3Kβ). It is filed as biochemical. To be noted: 2× Km ATP, 30 minutes at 25° C. An outline of the steps:
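IC50 came from four-parameter dose-response fits, normalized between DMSO and 1 μM wortmannin controls. The read-out was TR-FRET (615/665 nm) of PIP3 displacing fluorescent PIP3 from Europium GRP-1 after 10 mM EDTA termination. Compounds were incubated with purified heterodimeric PI3Kβ for 30 min at 25° C.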
In general terms: In TR-FRET formats the signal depends on donor and acceptor labels being close together.

24 compounds from patent US10214519B2, “Phosphatidylinositol 3-kinase inhibitors” (Gilead Sciences, Inc., priority 2016, dated 2019) can be followed below.

SMILES strings stand for the structures.

Chain of PI3Kβ (P42338 whole entry, canonical isoform): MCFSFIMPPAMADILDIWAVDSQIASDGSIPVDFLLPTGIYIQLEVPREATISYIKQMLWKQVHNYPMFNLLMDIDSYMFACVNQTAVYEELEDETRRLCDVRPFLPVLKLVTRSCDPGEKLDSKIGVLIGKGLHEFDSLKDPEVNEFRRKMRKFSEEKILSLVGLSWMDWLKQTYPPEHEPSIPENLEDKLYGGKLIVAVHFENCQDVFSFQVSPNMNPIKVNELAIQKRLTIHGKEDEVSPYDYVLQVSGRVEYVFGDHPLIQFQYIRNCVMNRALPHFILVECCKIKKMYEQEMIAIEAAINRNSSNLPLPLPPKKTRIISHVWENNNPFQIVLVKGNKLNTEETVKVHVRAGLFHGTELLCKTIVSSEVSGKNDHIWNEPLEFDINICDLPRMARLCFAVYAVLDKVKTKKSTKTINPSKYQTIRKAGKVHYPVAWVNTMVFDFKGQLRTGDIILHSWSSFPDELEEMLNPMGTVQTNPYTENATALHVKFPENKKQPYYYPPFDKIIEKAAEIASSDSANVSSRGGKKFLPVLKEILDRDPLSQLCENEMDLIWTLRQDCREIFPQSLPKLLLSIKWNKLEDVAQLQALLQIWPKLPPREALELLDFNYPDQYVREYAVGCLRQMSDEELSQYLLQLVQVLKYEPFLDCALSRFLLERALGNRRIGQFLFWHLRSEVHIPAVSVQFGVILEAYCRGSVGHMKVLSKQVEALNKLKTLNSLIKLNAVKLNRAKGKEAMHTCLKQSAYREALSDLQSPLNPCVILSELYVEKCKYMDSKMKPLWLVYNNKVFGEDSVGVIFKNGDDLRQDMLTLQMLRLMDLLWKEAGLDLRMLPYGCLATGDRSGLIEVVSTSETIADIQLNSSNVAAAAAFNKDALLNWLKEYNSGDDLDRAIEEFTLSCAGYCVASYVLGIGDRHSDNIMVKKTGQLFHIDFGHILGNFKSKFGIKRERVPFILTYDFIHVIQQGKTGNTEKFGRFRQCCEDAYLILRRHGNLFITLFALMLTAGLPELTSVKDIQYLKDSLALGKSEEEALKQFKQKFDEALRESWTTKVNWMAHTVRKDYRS
Chain of PI3Kβ (P27986 whole entry partner, canonical isoform): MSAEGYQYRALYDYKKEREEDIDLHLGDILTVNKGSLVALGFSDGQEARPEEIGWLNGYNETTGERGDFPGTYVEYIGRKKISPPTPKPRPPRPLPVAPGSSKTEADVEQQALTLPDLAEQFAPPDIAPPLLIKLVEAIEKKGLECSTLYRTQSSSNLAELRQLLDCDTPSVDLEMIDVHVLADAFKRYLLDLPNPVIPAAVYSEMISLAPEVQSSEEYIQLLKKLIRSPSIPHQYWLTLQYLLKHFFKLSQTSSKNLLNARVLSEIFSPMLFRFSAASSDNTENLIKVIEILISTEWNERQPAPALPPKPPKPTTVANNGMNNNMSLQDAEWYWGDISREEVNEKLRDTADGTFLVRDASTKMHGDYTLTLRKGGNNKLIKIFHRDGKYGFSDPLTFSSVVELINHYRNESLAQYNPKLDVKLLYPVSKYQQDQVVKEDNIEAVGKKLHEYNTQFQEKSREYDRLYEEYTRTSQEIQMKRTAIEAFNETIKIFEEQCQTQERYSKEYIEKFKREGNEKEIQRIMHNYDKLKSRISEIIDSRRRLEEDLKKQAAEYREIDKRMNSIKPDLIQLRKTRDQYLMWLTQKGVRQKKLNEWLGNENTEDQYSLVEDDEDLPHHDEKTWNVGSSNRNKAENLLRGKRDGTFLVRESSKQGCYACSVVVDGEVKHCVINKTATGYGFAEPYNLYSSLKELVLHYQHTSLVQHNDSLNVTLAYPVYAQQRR

By IC50 is commonly meant the midpoint of a concentration-inhibition curve. A lower IC50 goes with greater potency in that assay. Consider `Cc1nnc(-c2cc(N3CCOCC3)cc3c2nc(C)n3-c2ccnc3c(Cl)ccc(F)c23)[nH]1` [Example 94, 4-[3-(8-chloro-5-fluoroquinolin-4-yl)-2-methyl-7-(5-methyl-4H-1,2,4-triazol-3-yl)benzimidazol-5-yl]morpholine], for which the IC50 was 26 nM.

For the compound `Cc1nc2c(-c3cscn3)cc(N3CCOCC3)cc2n1-c1ccnc2ccccc12` [Example 265, 4-[2-methyl-3-quinolin-4-yl-7-(1,3-thiazol-4-yl)benzimidazol-5-yl]morpholine], the IC50 came out at 460 nM.

As for `Cc1nc2c(-c3nnc(Cl)[nH]3)cc(N3CCOCC3)cc2n1-c1ccnc2c(F)ccc(F)c12` [Example 180, 4-[7-(5-chloro-4H-1,2,4-triazol-3-yl)-3-(5,8-difluoroquinolin-4-yl)-2-methylbenzimidazol-5-yl]morpholine], half-maximal inhibition (IC50) was put at 42 nM.

As for `Cc1nc2c(-c3nnc[nH]3)cc(N3CCOCC3)cc2n1-c1ccnc2c(Cl)cccc12` [Example 101, 4-[3-(8-chloroquinolin-4-yl)-2-methyl-7-(4H-1,2,4-triazol-3-yl)benzimidazol-5-yl]morpholine], the IC50 was 7 nM.

For `Cc1nc2c(-c3ccoc3)cc(N3CCOCC3)cc2n1-c1ccnc2c(Cl)cccc12` [Example 275, 4-[3-(8-chloroquinolin-4-yl)-7-(furan-3-yl)-2-methylbenzimidazol-5-yl]morpholine], 88 nM corresponded to half-maximal inhibition (IC50).

For the compound `Clc1cccc2c(-n3cnc4c(-c5nnc[nH]5)cc(N5CCOCC5)cc43)ccnc12` [Example 111, 4-[3-(8-chloroquinolin-4-yl)-7-(4H-1,2,4-triazol-3-yl)benzimidazol-5-yl]morpholine], it took 3 nM to reach half-maximal inhibition (IC50).

Regarding `Clc1cccc2c(-n3cnc4c(-c5ncco5)cc(N5CCOCC5)cc43)ccnc12` [Example 224, 4-[3-(8-chloroquinolin-4-yl)-7-(1,3-oxazol-2-yl)benzimidazol-5-yl]morpholine], the IC50 was 3 nM.

For the compound `Cc1nc2c(-c3nnc[nH]3)cc(N3CCOCC3)cc2n1-c1ccnc2cccc(C(F)F)c12` [Example 85, 4-[3-[5-(difluoromethyl)quinolin-4-yl]-2-methyl-7-(4H-1,2,4-triazol-3-yl)benzimidazol-5-yl]morpholine], half-maximal inhibition (IC50) was put at 280 nM.

`CCCc1nc2c(-c3ncco3)cc(N3CCOCC3)cc2n1-c1ccnc2c(F)ccc(F)c12` [Example 230, 4-(1-(5,8-difluoroquinolin-4-yl)-4-(oxazol-2-yl)-2-propyl-1H-benzo[d]imidazol-6-yl)morpholine] displayed a half-maximal inhibitory concentration (IC50) of 7 nM.

Take `Cc1nnc(-c2cc(N3CCOCC3)cc3c2nc(C)n3-c2ccnc3c(F)ccc(F)c23)[nH]1` (atropisomer, axis not shown) [Compound 350, (S)-4-(1-(5,8-difluoroquinolin-4-yl)-2-methyl-4-(5-methyl-4H-1,2,4-triazol-3-yl)-1H-benzo[d]imidazol-6-yl)morpholine]: the IC50 turned out to be 10 nM.

Compound `Clc1cccc2c(-n3c(C4CNC4)nc4c(-c5nnc[nH]5)cc(N5CCOCC5)cc43)ccnc12` [Example 132, 4-[2-(azetidin-3-yl)-3-(8-chloroquinolin-4-yl)-7-(4H-1,2,4-triazol-3-yl)benzimidazol-5-yl]morpholine] displayed an IC50 of 380 nM.

Compound `CCc1nc2c(-c3cnc[nH]3)cc(N3CCOCC3)cc2n1-c1cc(C)nc2c(Cl)ccc(Cl)c12` [Example 334, 4-[3-(5,8-dichloro-2-methylquinolin-4-yl)-2-ethyl-7-(1H-imidazol-5-yl)benzimidazol-5-yl]morpholine] yielded an IC50 of 24 nM.

Take `Fc1c(N2CCOCC2)cc(-c2nnc[nH]2)c2ncn(-c3ccnc4c(Cl)cccc34)c12` [Example 149, 4-(1-(8-chloroquinolin-4-yl)-7-fluoro-4-(4H-1,2,4-triazol-3-yl)-1H-benzo[d]imidazol-6-yl)morpholine]: the IC50 turned out to be 100 nM.

On to `Cc1nc2c(-c3cc[nH]n3)cc(N3CCOCC3)cc2n1-c1ccnc2c(Cl)cccc12` [Example 262, 4-[3-(8-chloroquinolin-4-yl)-2-methyl-7-(1H-pyrazol-3-yl)benzimidazol-5-yl]morpholine], for which the IC50 amounted to 27 nM.

Regarding `Fc1ccc(F)c2c(-n3cnc4c(-c5cnc(C(F)(F)F)[nH]5)cc(N5CCOCC5)cc43)ccnc12` [Example 390, 4-(1-(5,8-difluoroquinolin-4-yl)-4-(2-(trifluoromethyl)-1H-imidazol-5-yl)-1H-benzo[d]imidazol-6-yl)morpholine], the IC50 was determined as 840 nM.

`CC(C)(C)c1nc2c(-c3nnc[nH]3)cc(N3CCOCC3)cc2n1-c1ccnc2c(Cl)cccc12` [Example 20, 4-(2-(tert-butyl)-1-(8-chloroquinolin-4-yl)-4-(4H-1,2,4-triazol-3-yl)-1H-benzo[d]imidazol-6-yl)morpholine]: it took 120 nM to reach half-maximal inhibition (IC50).

In turn, `Cn1cc(-c2nc3c(-c4nnc[nH]4)cc(N4CCOCC4)cc3n2-c2ccnc3c(Cl)cccc23)cn1` [Example 121, 4-[3-(8-chloroquinolin-4-yl)-2-(1-methylpyrazol-4-yl)-7-(4H-1,2,4-triazol-3-yl)benzimidazol-5-yl]morpholine] had an IC50 of 44 nM.

The compound `CCc1nc2c(-c3nnc(C)[nH]3)cc(N3CCOCC3)cc2n1-c1c(Cl)cnc2c(Cl)cccc12` (atropisomer, axis not shown) [Compound 348, 4-[3-(3,8-dichloroquinolin-4-yl)-2-ethyl-7-(5-methyl-4H-1,2,4-triazol-3-yl)benzimidazol-5-yl]morpholine] yielded an IC50 of 13 nM.

In turn, `Fc1cccc2c(-n3cnc4c(-c5cnc(Cl)[nH]5)cc(N5CCOCC5)cc43)ccnc12` [Example 292, 4-[7-(2-chloro-1H-imidazol-5-yl)-3-(8-fluoroquinolin-4-yl)benzimidazol-5-yl]morpholine] had an IC50 of 42 nM.

`Cc1nc2c(-c3nnc[nH]3)cc(N3CCOCC3)cc2n1-c1c(Cl)cnc2c(Cl)cccc12` [Example 97, 4-[3-(3,8-dichloroquinolin-4-yl)-2-methyl-7-(4H-1,2,4-triazol-3-yl)benzimidazol-5-yl]morpholine] displayed an IC50 of 12 nM.

`Cc1cccc2c(-n3c(C)nc4c(-c5nnc[nH]5)cc(N5CCOCC5)cc43)ccnc12` [Example 109, 4-[2-methyl-3-(8-methylquinolin-4-yl)-7-(4H-1,2,4-triazol-3-yl)benzimidazol-5-yl]morpholine]: the IC50 came to 13 nM.

`Fc1ccc(F)c2c(-n3c(C4COC4)nc4c(-c5nnc[nH]5)cc(N5CCOCC5)cc43)ccnc12` [Example 123, 4-[3-(5,8-difluoroquinolin-4-yl)-2-(oxetan-3-yl)-7-(4H-1,2,4-triazol-3-yl)benzimidazol-5-yl]morpholine] registered an IC50 of 110 nM.

In the case of `Cc1nnc(-c2cc(N3CCOCC3)cc3c2ncn3-c2cc(-c3cc[nH]n3)nc3ccccc23)[nH]1` [Example 382, 4-(1-(2-(1H-pyrazol-3-yl)quinolin-4-yl)-4-(5-methyl-4H-1,2,4-triazol-3-yl)-1H-benzo[d]imidazol-6-yl)morpholine], it took 130 nM to reach half-maximal inhibition (IC50).

In turn, `CCc1nc2c(-c3cnc[nH]3)cc(N3CCOCC3)cc2n1-c1cc(C)nc2c(F)cccc12` [Example 211, 4-[2-ethyl-3-(8-fluoro-2-methylquinolin-4-yl)-7-(1H-imidazol-5-yl)benzimidazol-5-yl]morpholine] registered an IC50 of 22 nM.
